{"source": "patent US8575199B2", "about": "“Formula (IA″) compounds comprising (piperidin-4-yl)pyridine or (1,2,3,6-tetrahydropyridin-4-4yl) as TRPV1 antagonists” (Purdue Pharma L.P., priority 2007, dated 2013)", "key": {"[1]": {"assay": "Aqueous solubility at pH 6.8 or pH 1.2", "assay_type": "physicochemical", "conditions": "aqueous solution"}, "human recombinant TRPV1": {"molecular_target": "T1, human recombinant TRPV1 (Homo sapiens, UniProt Q8NER1)", "T1 construct": "using primers designed surrounding the complete hTRPV1 open reading frame; expressed in transfected cells; host or cells: CHO-K1 cells stably transfected with pcDNA3.1(-)-hVR1 plasmid", "T1 sequence (Q8NER1 whole entry)": "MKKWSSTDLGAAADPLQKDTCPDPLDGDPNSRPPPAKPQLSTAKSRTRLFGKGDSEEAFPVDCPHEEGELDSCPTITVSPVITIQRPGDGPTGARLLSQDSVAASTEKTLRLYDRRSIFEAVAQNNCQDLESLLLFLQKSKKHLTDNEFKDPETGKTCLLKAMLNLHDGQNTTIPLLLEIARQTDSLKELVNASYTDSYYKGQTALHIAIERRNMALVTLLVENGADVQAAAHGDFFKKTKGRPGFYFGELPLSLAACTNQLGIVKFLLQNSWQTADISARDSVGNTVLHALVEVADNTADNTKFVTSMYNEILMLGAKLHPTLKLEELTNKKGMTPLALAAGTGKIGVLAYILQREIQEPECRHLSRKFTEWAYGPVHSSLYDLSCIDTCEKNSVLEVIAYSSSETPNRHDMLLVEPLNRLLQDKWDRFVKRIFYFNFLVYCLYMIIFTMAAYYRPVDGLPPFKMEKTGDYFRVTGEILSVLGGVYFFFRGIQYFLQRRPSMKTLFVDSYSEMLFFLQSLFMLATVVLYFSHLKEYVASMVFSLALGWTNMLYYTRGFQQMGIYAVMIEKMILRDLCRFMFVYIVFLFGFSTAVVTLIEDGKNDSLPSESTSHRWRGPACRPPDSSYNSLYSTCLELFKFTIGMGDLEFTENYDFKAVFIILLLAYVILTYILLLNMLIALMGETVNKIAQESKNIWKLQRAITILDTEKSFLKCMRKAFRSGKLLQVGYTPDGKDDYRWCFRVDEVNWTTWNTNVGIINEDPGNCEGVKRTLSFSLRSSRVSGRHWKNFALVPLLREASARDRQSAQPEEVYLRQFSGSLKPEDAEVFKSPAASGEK", "assay": "pH-based assay, Protocol 2 (hpH-CHO), Ca2+ influx by Fura-2 AM/FDSS-3000 in TRPV1/CHO cells", "assay_type": "cell-based", "conditions": "H2SO4 agonist, pH 5.0-5.1, mean ± standard error of the mean (number of trials), read-out: TRPV1 IC50 Potency, Human pH CHO (hpH-CHO)", "from_the_text": "For Protocol 2, a Chinese Hamster Ovary cell line (CHO) that has been engineered to constitutively express human recombinant TRPV1 was used (TRPV1/CHO cells). The TRPV1/CHO cell line was generated as described below.\nThe resulting PCR products were purified from agarose gels using Gel Band Purification Kit (GE Healthcare Bioscience) and were subcloned into pCR-Blunt vector (Invitrogen). The cloned cDNA was fully sequenced using a fluorescent dye-terminator reagent (BigDye Terminator ver3.1 Cycle Sequencing Kit, Applied Biosystems) and ABI Prism 3100 genetic analyzer (Applied Biosystems). The pCR-Blunt vector containing the hTRPV1 cDNA was subjected to restriction digestion with EcoR1. […] The sequence of the cDNA encoding TRPV1 is available at GenBank accession number AJ277028. […]\n(5) The Fura-2 fluorescent intensity was monitored at a wavelength of 340 nm and at 380 nm, respectively, at a rate of 0.5 Hz for a total of 240 seconds. […]\n(6) Fluorescence intensity ratio refers to the fluorescence intensity at 340 nm over the fluorescence intensity at 380 nm at a particular time point. […]\n(7) Maximal signal ratios from each well were calculated as output data using the FDSS-3000 analysis program. Data were analyzed using Excel (Microsoft) and XLfit (idbs) software."}, "[2]": {"conditions": "pH 1.2, simulated gastric fluid, read-out: aqueous solubility at pH 1.2"}, "[3]": {"conditions": "pH 6.8, aqueous buffer, read-out: aqueous solubility at pH 6.8"}}, "note": "Like-named read-outs stand apart in the source and are kept apart here."}
{"compound": "O=C(Nc1ccc(C(F)(F)F)c(F)c1)N1CCC(F)(c2ncccc2Cl)CC1", "note": "[Compound 209]", "values": [{"measurement": "solubility", "setting": "[1]; [2]", "result": 9.3, "unit": "µM"}, {"measurement": "solubility", "setting": "[1]; [3]", "result": 1, "unit": "µM"}]}
{"compound": "O=C(Nc1ccc(C(F)(F)F)c(F)c1)N1CC=C(c2ncccc2Cl)CC1", "note": "[Compound 213]", "values": [{"measurement": "solubility", "setting": "[1]; [2]", "result": 39.6, "unit": "µM"}, {"measurement": "solubility", "setting": "[1]; [3]", "result": 0.8, "unit": "µM"}]}
{"compound": "O=C(Nc1ccc(C(F)(F)F)c(Cl)c1)N1CC=C(c2ncccc2F)CC1", "note": "[Compound 215]", "values": [{"measurement": "solubility", "setting": "[1]; [2]", "result": 9.6, "unit": "µM"}, {"measurement": "solubility", "setting": "[1]; [3]", "result": 0.6, "unit": "µM"}]}
{"compound": "O=C(Nc1ccc(OC(F)(F)F)c(-c2ccccc2)c1)N1CC=C(c2ncc(CO)cc2Cl)CC1", "note": "[Compound D3]", "values": [{"measurement": "IC50", "setting": "human recombinant TRPV1", "result": "39.8 ± 2.2", "unit": "nM"}]}
{"compound": "O=C(Nc1ccc(C(F)(F)F)c(Cl)c1)N1CCC(F)(c2ncc([C@H](O)CO)cc2F)CC1", "note": "[Compound Q3]", "values": [{"measurement": "IC50", "setting": "human recombinant TRPV1", "result": "5.3 ± 1", "unit": "nM"}]}
